For data set [1], the system named is A549 cells. Briefly: AlamarBlue cytotoxicity assay, A549. Format: cell-based. Conditions: Homo sapiens, 48 hr treatment. How it is done: (§1) Cervical (HeLa), ovarian (A2780), and lung (A549) cancer cells, obtained from Biotechnology Laboratory stocks, Biotechnology Research Center (Mashhad, Iran) and colon (HCT116) obtained from National Cell Bank of Iran (NCBI), Pasteur Institute of Iran, Tehran (Iran).
(§2) In vitro cytotoxicity tests were performed using a nonfluorescent substrate, AlamarBlue® (Paisely, UK) cell viability assay as described with some modifications (16). […] After counting, the cells were seeded in 96-well microplates (1 × 10^4 cells/100 µl in each well) and cultivated for 24 hr before addition of test compounds. Triplicate plates for three wells of each concentration were seeded. […] Thereafter, 10 μl of AlamarBlue® reagent was added and incubated for another 4 hr. Then, absorbance was measured at 600 nm using an ELISA microplate reader (Epoch; USA). IC50 values were calculated by nonlinear regression analysis using GraphPad prism (Version 6.0) software.

Data set [2] concerns A2780 cells. Briefly: AlamarBlue cytotoxicity assay, A2780. The settings on record: Homo sapiens, 48 hr treatment. The format is cell-based. Here is the method:
as §1, §2

Data set [3] has as its system pan-HDAC. Briefly: Whole-cell HDAC inhibition assay in HeLa cells. Conditions: read-out: HDAC inhibition IC50 HeLa, 18 hr incubation, Boc-Lys(ε-Ac)-AMC substrate.
Description: (§3) Three wells defined as 100% initial activity and three wells defined as background and three wells for each concentration were seeded. […] The test compounds, were dissolved in dimethyl sulfoxide (final concentrations of DMSO per well was 0.1% V/V) and their concentrations adjusted to 70, 40, 20, 5, 1 μM through dilution with the growth medium. The first step of reaction was started by adding 10 µl of 3 mM Boc-Lys (ε-Ac)-AMC (Bachem, Switzerland) to each well to reach a final concentration of 0.3 mM. Then, cells were incubated with the Boc-Lys (ε-Ac)-AMC for 3 hr under cell culture conditions. […] The final volume of the solution (210 µl per well) were transferred to the black 96-well microplate with flat clear bottom. We calculated fluorescence intensity at an excitation of 360 nm and emission of 470 nm in a NOVO star microplate reader (BMGLabTech, Germany).
Data set [4] has as its system pan-HDAC. Briefly: Whole-cell pan-HDAC inhibition, summary over HeLa and HCT116. The settings on record: read-out: pan-HDAC inhibitory activity IC50 (range over HeLa and HCT116), collective range.
Description: as §3
The subject of data set [5] is HCT116 cells. In words: AlamarBlue cytotoxicity assay, HCT116. The settings on record: Homo sapiens, HCT-116, 48 hr treatment. Format: cell-based. Here is the method: as §1, §2
Data set [6] concerns pan-HDAC. Briefly: Whole-cell HDAC inhibition assay in HCT116 cells. Conditions: read-out: HDAC inhibition IC50 HCT116, HCT116, 18 hr incubation, Boc-Lys(ε-Ac)-AMC substrate.
Description: as §3
Data set [7] concerns HeLa cells. Briefly: AlamarBlue cytotoxicity assay, HeLa. Conditions: Homo sapiens, 48 hr treatment. Format: cell-based. How it is done: as §1, §2
The subject of data set [8] is human cancer cell lines (HeLa, HCT116, A2780 and A549). Briefly: AlamarBlue cytotoxicity, summary over the four cancer cell lines. Format: cell-based. Conditions: collective range, read-out: Cytotoxic activity IC50 against cancer cells (range over cell lines and compounds). Here is the method:
as §1, §2

Our source for the IC50 values is article PMC6437461, “Histone deacetylase inhibitory and cytotoxic activities of the constituents from the roots of three species of Ferula” (Iranian Journal of Basic Medical Sciences, 2019).

Like-named read-outs stand apart in the source and are kept apart here.

`CC1=CCC2C(C)(C)C(=O)CC[C@@]2(C)[C@@H]1COc1ccc2ccc(=O)oc2c1` (some centres unmarked) [Conferone (6), Conferone]: the 50% inhibitory concentration (IC50) is 39.2 ± 5.23 µM in data set [1]; 32.4 ± 9.83 µM in data set [2]; 1.17 ± 0.06 µM in data set [3]; 1.06 to 1.17 µM in data set [4]; 31.8 ± 8.33 µM in data set [5]; 1.06 ± 0.15 µM in data set [6]. The IC50 in data set [7] is 38.2 ± 7.8 µM; in data set [8], < 50 µM.
For `CCC(C)SS/C=C/COC(=O)CC(C)(C)O` (centres unmarked) [Persicasulfide C (3), Persicasulfide C], the IC50 in data set [1] is > 100 µM; in data set [2], > 100 µM; in data set [3], > 70 µM; in data set [5], > 100 µM; in data set [6], > 70 µM; in data set [7] it was 64.8 ± 1.01 µM.
In the case of `C=C(C)C(=O)OC/C=C\SSC(C)CC` (centres unmarked) [Latisulfide B (14), Latisulfide B], the IC50 in data set [1] was > 100 µM; in data set [2], > 100 µM; in data set [3], > 70 µM; in data set [5], > 100 µM; in data set [6], > 70 µM; in data set [7] it was > 100 µM.
Turning to `CC1=CC(OC2OC(CO)C(O)C(O)C2O)C2C(C)(C)C(=O)CC[C@@]2(C)[C@@H]1COc1ccc2ccc(=O)oc2c1` (some centres unmarked) [Conferoside (10), Conferoside], the IC50 was 45.8 ± 6.39 µM in data set [1]; 36.4 ± 12.3 µM in data set [2]; 35.27 ± 0.16 µM in data set [3]; 35.3 ± 6.98 µM in data set [5]; 9.94 ± 1.89 µM in data set [6]; 40 ± 7.99 µM in data set [7]. Moreover, the half-maximal inhibitory concentration (IC50) in data set [8] (Homo sapiens) lay within 11.6 to 49.4 µM.
On to `CC(C)=CCC/C(C)=C/CC/C(C)=C/COc1ccc2ccc(=O)oc2c1` [Umbelliprenin (4), Umbelliprenin], for which the IC50 in data set [1] is > 100 µM; in data set [2], > 100 µM; in data set [3], > 70 µM; in data set [5] it was > 100 µM; in data set [6], > 70 µM; in data set [7], > 100 µM.
In the case of `CCC(C)SS/C=C/COC(=O)CC(C)(C)OC(C)=O` (centres unmarked) [Persicasulfide A (2), Persicasulfide A], the IC50 in data set [1] was determined as 15.3 ± 6.77 µM; in data set [2] it was 19.4 ± 7.29 µM; in data set [3], 5.47 ± 0.89 µM; in data set [5], 11.6 ± 10.5 µM; in data set [6], 4.41 ± 0.24 µM; in data set [7], 11.8 ± 11.6 µM. The IC50 in data set [8] (Homo sapiens) lay in the range of 11.6 to 49.4 µM.
Take `C=C1CCC(=O)C(C)(C)[C@H]1CC/C(C)=C/COc1ccc2ccc(=O)oc2c1` [Farnesiferone B (5), Farnesiferone B]: the IC50 in data set [1] is 72.5 ± 4.83 µM; in data set [2] it was 78.9 ± 6.74 µM; in data set [3], > 70 µM; in data set [5], 50.1 ± 6.29 µM; in data set [6] it was 40.4 ± 1.09 µM; in data set [7] it was 71.6 ± 6.4 µM.
`CCC(C)SS/C=C\CO` (centres unmarked) [Latisulfide D (16), Latisulfide D]: the IC50 in data set [1] is > 100 µM; in data set [2], > 100 µM; in data set [3], > 70 µM; in data set [5], > 100 µM; in data set [6] it was > 70 µM; in data set [7] it was > 100 µM.
Regarding `CC1=CC[C@@H]2C(C)(C)[C@H](O)CC[C@@]2(C)[C@@H]1COc1ccc2ccc(=O)oc2c1` [Feselol (7), Feselol], the IC50 turned out to be 25.5 ± 5.86 µM in data set [1]; 20.2 ± 9.68 µM in data set [2]; 10.7 ± 1.31 µM in data set [3]; 28.4 ± 8.1 µM in data set [5]; 5.29 ± 0.22 µM in data set [6]; 34.8 ± 7.94 µM in data set [7]. The IC50 in data set [8] (Homo sapiens) was 11.6 to 49.4 µM.
For the compound `CCC(C)SS/C=C\COC(C)=O` (centres unmarked) [Latisulfide A (13), Latisulfide A], the IC50 in data set [1] was > 100 µM; in data set [2], > 100 µM; in data set [3], > 70 µM; in data set [5], > 100 µM; in data set [6], > 70 µM; in data set [7] it was 77.6 ± 3.43 µM.
`C/C=C(/C)C(=O)OC/C=C\SSC(C)CC` (centres unmarked) [Latisulfide C (15), Latisulfide C]: the IC50 in data set [1] is 47.9 ± 4.73 µM; in data set [2], 49.4 ± 6.2 µM; in data set [3], 10.6 ± 0.77 µM; in data set [5] it was 47.2 ± 8.18 µM; in data set [6], 25.91 ± 0.14 µM; in data set [7], 18.7 ± 8.5 µM. In addition, the IC50 in data set [8] (Homo sapiens) lay in the range of 11.6 to 49.4 µM.
Regarding `COc1cc(C(=O)OC2C3(C)CCC(C3)C2(C)C)ccc1O` (centres unmarked) [Stylosin (19), Stylosin], the concentration for half-maximal inhibition (IC50) in data set [2] is 25.5 ± 5.96 µM; in data set [3], > 70 µM; in data set [5], 42.1 ± 6.1 µM; in data set [6] it was 14.93 ± 0.08 µM; in data set [7], 54.8 ± 7.53 µM.
Take `CC1=CC(=O)C2C(C)(C)C(=O)CC[C@@]2(C)[C@@H]1COc1ccc2ccc(=O)oc2c1` (some centres unmarked) [Conferdione (9), Conferdione]: the IC50 is 32.7 ± 7.96 µM in data set [1]; 38.8 ± 9.88 µM in data set [2]; 17.4 ± 0.5 µM in data set [3]; 50.9 ± 5.19 µM in data set [5]; > 70 µM in data set [6]; 41.7 ± 11.1 µM in data set [7].
On to `CC1=CC(=O)[C@@H]2C(C)(C)[C@H](O)CC[C@@]2(C)[C@@H]1COc1ccc2ccc(=O)oc2c1` [Ligupersin A (8), Ligupersin A], for which the IC50 was found to be 33.5 ± 9.58 µM in data set [1]; 39.5 ± 10.8 µM in data set [2]; 2.86 ± 1.4 µM in data set [3]; 68.5 ± 7.41 µM in data set [5]; 26.44 ± 0.03 µM in data set [6]; 22.9 ± 6.82 µM in data set [7].
As for `CCC(C)SS/C=C\COC(=O)/C=C/c1ccc(O)c(OC)c1` (centres unmarked) [Latisulfide E (17), Latisulfide E], the half-inhibitory concentration (IC50) in data set [1] amounted to 69.7 ± 7.71 µM; in data set [2], 71.3 ± 6.52 µM; in data set [3], 5.02 ± 0.29 µM; in data set [5], 57.1 ± 5.21 µM; in data set [6] it was 19.9 ± 0.69 µM; in data set [7] it was 30.6 ± 14.9 µM.
